These are literature values, as cited in US20050065130A1, “Pharmaceutical compositions and methods comprising combinations of 2-alkylidene-19-nor-vitamin D derivatives and a cyclooxgenase-2 inhibitor” (Pfizer Inc., priority 2003, published 2005).

`C=C1[C@H](O)CC(=C/C=C2\CCC[C@]3(C)[C@@H]([C@H](C)CCCC(C)(C)O)CC[C@@H]23)C[C@H]1O` [2-Methylene-19-Nor-1,25-(OH)2D3, 1α,25-dihydroxy-2-methylene-19-nor-vitamin D3]: the “bone calcium mobilization (in words)” value (chronic mode 7 days, both dose levels (130 and 260 pmol/day)) was “extremely strong”. In addition, the “activity on bone calcium mobilization (serum calcium), times that of the native hormone 1,25-(OH)2D3” value (relative to 1,25-(OH)2D3, chronic mode 7 days) is on record as 10-100 times.
Regarding `C=C1/C(=C\C=C2/CCC[C@]3(C)[C@@H]([C@H](C)CCCC(C)(C)O)CC[C@@H]23)C[C@@H](O)C[C@@H]1O` [1,25-(OH)2D3, 1,25-dihydroxyvitamin D3, reference compound], the “serum calcium value” (as printed: twice the dose, at the 130 pmol dose) is given as 13.8 mg/100 ml.
